Data: US7872041B2, “Use of rotigotine for treating and preventing Parkinson's plus syndrome” (priority 2004, dated 2011)

Key:
MPTP mouse model [1] = test: Acute MPTP model, FluoroJade staining of degenerating neurons; assay type: in vivo, mice; conditions: for Number of degenerating neurons: FluoroJade staining
Description: The results set forth below in Table 2 indicate the number of acutely degenerating neurons in the MPTP mouse model shown with FluoroJade staining with and without treatment with a single administration of rotigotine:
To induce intoxication, mice were administered 80 mg/kg of the neurotoxin 1-methyl-4-phenyl-1,2,3,6-tetrahydro-pyridine (MPTP) (in portions of 20 mg/kg at two-hourly intervals) resulting in the degeneration of approximately 50-60% of the neurons in the substantia nigra. Approximately 16 hours previously, rotigotine was added in doses of 0.3, 1 or 3 mg/kg respectively as a so-called ‘slow-release formulation’ (see embodiment 2). Diffusion and absorption latencies mean that rotigotine is optimally available when MPTP is added. Animals that were only given the vehicle solution (see embodiment 2 without rotigotine HCl) served as controls. After 24 hours, the animals were sacrificed and the brains fixed. The brain sections were stained with FluoroJade for the identification of degenerating cells. Immunohistochemical marking of the tyrosine hydroxylase was used to identify dopaminergic neurons. […] The number of the degenerating neurons was approximately 50% lower after the application of rotigotine, which is further confirmation of the neuroprotective properties of the substance (Table 2).

MPTP mouse model [2] = test: Subacute MPTP model, dopamine transporter density in the striatum; assay type: in vivo, mice
Description: To induce intoxication, mice were administered 80 mg/kg of the neurotoxin 1-methyl-4-phenyl-1,2,3,6-tetrahydro-pyridine (MPTP) (in portions of 20 mg/kg in two-hourly intervals, groups 3-6 in FIGS. 1 and 2) resulting in the degeneration of about 50-60% of the neurons of the substantia nigra (maximum degeneration in group 3 in FIGS. 1 and 2). Rotigotine was administered daily in doses of 0.3, 1 or 3 mg/kg respectively over 7 days as a so-called ‘slow-release formulation’ (see embodiment 2) (groups 4-6 in FIGS. 1 and 2). A group of MPTP-treated animals (group 3) was given rotigotine-vehicle solution (see embodiment 2 without rotigotine HCl) and served as a reference. The controls were groups 1, 2 and 7, whereby group 1 is not given any treatment, group 2 is treated with the vehicle-solutions for MPTP and rotigotine, and group 7 was exclusively given rotigotine. The animals were sacrificed on day 8, their brains removed and frozen. Frozen sections were incubated with 100 pm[^125I] PE21 ([^125I]-(E)-N(3-iodoprop-2-enyl)-2β-carboxymethyl-3β-(4′-methylphenyl)-nortropane) in a phosphate buffer, pH 7.4 in order to mark the quantity of dopamine transporters still present in the striatum as an indicator of the quantity of functioning nerve endings. […] This is clear evidence of the neuroprotective properties of the substance (FIG. 1 and 2).

[3] = tested on: MPTP model in monkeys (macaques); test: Progressive MPTP primate model, pilot study; assay type: in vivo
Description: In the MPTP model used, which reflects the progressive course of dopaminergic cell destruction in primates, monkeys (macaques) were injected with subthreshold toxic doses of MPTP over several days. The parkinsonian symptoms developed in the model over a period of approximately 2 weeks. As soon as a specific degree of damage was reached, daily injections of rotigotine were provided in a formulation giving rise to a continuous plasma level over a 24 hour period. The injections of MPTP were stopped as soon as the motor activity in the controls had reduced by a specific degree (approximately 5 days later). The animals' behavior was evaluated every day. […] At the end of rotigotine application or at the end of the wash-out phase, in each case one group of animals was sacrificed and the condition of the basal ganglia investigated histologically and biochemically. The density of the nerve endings in the striatum of the treated animals was much higher than it was in the untreated animals.

[4] = transdermal administration, WO 02/089777 and other authors; cited from earlier work

CCCN(CCc1cccs1)[C@H]1CCc2c(O)cccc2C1 [rotigotine, (−)5,6,7 ,8-tetrahydro-6-[propyl[2-(2-thienyl)ethyl]amino]-1-naphthol]
Number of degenerating neurons (MPTP mouse model [1]; MPTP intoxication + rotigotine 0.3 mg/kg, single administration): 66.7
Number of degenerating neurons (MPTP mouse model [1]; MPTP intoxication + rotigotine 1.0 mg/kg, single administration): 76.8
Number of degenerating neurons (MPTP mouse model [1]; MPTP intoxication + rotigotine 3.0 mg/kg, single administration): 34.9
Number of degenerating neurons (MPTP mouse model [1]; MPTP-vehicle + rotigotine 3.0 mg/kg (no MPTP)): 3.8
Number of degenerating neurons lower after application of rotigotine (MPTP mouse model [1]; acute MPTP model, versus MPTP without rotigotine): approximately 50%
Number of degenerating neurons in the mesencephalon (MPTP mouse model [1]; acute phase after MPTP, after administration of rotigotine): reduced
Staining of the tyrosine hydroxylase (dopaminergic neurons) (MPTP mouse model [1]; treated versus untreated animals, 24 hours after MPTP): did not identify any differences between the treated and untreated animals
Survival of the neurons and the nerve endings (MPTP mouse model [2]; 0.3, 1 or 3 mg/kg daily over 7 days, slow-release formulation): improves the survival of the neurons and the nerve endings in relation to the dose
Dopaminergic innervation of the striatum (density of the dopamine transporter) (MPTP mouse model [2]; subacute phase after MPTP): virtually completely retained or restored
Content of preproenkephalin ([3]; after the treatment and after the wash-out phase): tendency toward normalization
Density of the nerve endings in the striatum ([3]; treated versus untreated animals): much higher
Motor activity of the animals ([3]; under treatment with daily injections and in the following wash-out phase): significantly improved
UPDRS scores [4]: improvement
